In patent US20260043031A1, “COMPOSITIONS AND METHODS FOR INHIBITING ADENYLATE CYCLASE 9 (AC9)” (INSTITUT DE CARDIOLOGIE DE MONTRÉAL, priority 2022, published 2026):

Columns and labels:
Type in all cases: cell-based, human
HepG2 cells [1] = assay: Cellular cholesterol efflux toward apo A-I
Method: (§1) HepG2 (hepatocellular carcinoma) cells were growth in Eagle's minimum essential medium (EMEM). The medium was supplemented with 10% FBS, 100 units/ml penicillin, and 100 μg/ml streptomycin. Cells were cultured in 5% CO2 at 37° C. and were harvested once a week with trypsin-EDTA. For experiments, cells were trypsinized, seeded, and cultured at least for 3 days prior to the assays.
(§2) HepG2 cells were transfected with ADCY9, SREBP2, LDLr or scramble siRNA in the presence of Lipofectamine RNAiMAX in Opti-MEM for 72 h unless otherwise stated.
Cells were labeled in EMEM containing 2 μCi/ml [1,2-^3H]cholesterol plus 1% FBS for 24 h at 37° C. Then, cells were equilibrated with EMEM containing 0.2% BSA for 18 h at 37° C. with or without H89 or GSK-2033. An efflux assay was performed in the absence or presence of 10 μg/ml of apo A-I. At the end of the incubation, the medium was harvested and cells were solubilized. Medium and cells were counted for radioactivity in a […]. The percentage of efflux was calculated by subtracting the radioactive counts in the medium in the absence of cholesterol acceptors from the radioactive counts in the presence of acceptor and then dividing by the sum of the radioactive counts in the medium plus the cell fraction.

HepG2 cells [2] = assay: 3H-CE-LDL cell association assay; conditions: HepG2, siAC9 plus 2 μM H89, 24 h
Method: as §1, §2

LDLr = assay: Western blot of LDLr protein in HepG2 cells; conditions: for LDLr protein expression in human HepG2 cells (% of siScramble): HepG2 transfected with siRNA, Western blot, actin loading control, n=8
Method: as §1, §2
(§3) For Western blotting, cells were washed with cold PBS and then scraped and lysed in ice-cold lysis buffer (50 mM Tris, pH 7.5, 150 mM NaCl, 1% Triton X-100, 0.1% SDS, 0.5% sodium deoxycholate, 1 mM PMSF, and protease inhibitor cocktail). Lysate was microcentrifugated for 20 min at 4° C. and supernatant was assessed for cell proteins. Proteins ([…]) were separated by sodium dodecyl sulfate-polyacrylamide gel electrophoresis (SDS-PAGE) followed by Western blotting to PVDF membrane.
Protein expression is represented as a percentage of the control, siScramble. n=8. Paired t-test: *=p≤0.05; **=p≤0.01; and ***=p≤0.001, relative to siScramble.

ABCA1 = assay: Western blot of ABCA1 protein in HepG2 cells; conditions: HepG2, siAC9 plus 2 μM H89, 24 h
Method: as §1, §2, §3

AC9 = assay: Western blot of AC9 protein after siRNA transfection of HepG2 cells; conditions: HepG2 transfected with siRNA, actin loading control, n=8
Method: as §1, §2, §3
Results were obtained by Western blotting and actin was used as a loading control. Protein expression is represented as a percentage of the control, siScramble. n=8. Paired t-test: *=p≤0.05; **=p≤0.01; and ***=p≤0.001, relative to siScramble.

[3] = HepG2, siAC9 plus 2 μM H89, 24 h

Cc1cc(C)c(S(=O)(=O)N(Cc2ccc(-c3cccc(S(C)(=O)=O)c3)cc2)Cc2ccc(C(F)(F)F)o2)c(C)c1 [GSK-2033]
ABCA1-mediated cholesterol efflux, effect on siAC9-mediated increase (HepG2 cells [1]; HepG2, siAC9 plus 5 μM GSK-2033, 24 h): significantly reduce

O=S(=O)(NCCNC/C=C/c1ccc(Br)cc1)c1cccc2cnccc12 [H89]
3H-CE-LDL association in siAC9-treated cells (HepG2 cells [2]): reduction
LDLr protein expression, effect on siAC9-mediated increase (LDLr; [3]): reversed
ABCA1 protein expression, effect on siAC9-mediated increase (ABCA1): reversed
cholesterol efflux in siAC9-treated cells (HepG2 cells [1]; [3]): not

CC(C)c1c(C(=O)Nc2ccccc2)c(-c2ccccc2)c(-c2ccc(F)cc2)n1CC[C@@H](O)C[C@@H](O)CC(=O)O [atorvastatin, reference compound]
LDLr protein expression, combined treatment (LDLr; HepG2, 300 μM exogenous cAMP plus 5 μM atorvastatin): increased

ADCY9-1: siRNA, sense SEQ ID NO: 3 CGAAAUGGAAGAUGGGAAAUU, antisense SEQ ID NO: 4 UUUCCCAUCUUCCAUUUCGUU; targets ADCY9 mRNA Exon 2 (listed as RNA, chemistry not fully specified)
AC9 protein expression in human HepG2 cells (% of siScramble) (AC9): 24% ***
LDLr protein expression in human HepG2 cells (% of siScramble) (LDLr): 131% **

ADCY9-2: siRNA, sense SEQ ID NO: 5 CGAAACAGGAAUAGAAGAAUU, antisense SEQ ID NO: 6 UUCUUCUAUUCCUGUUUCGUU; targets ADCY9 mRNA Exon 10 (listed as RNA, chemistry not fully specified)
AC9 protein expression in human HepG2 cells (% of siScramble) (AC9): 16% ***
LDLr protein expression in human HepG2 cells (% of siScramble) (LDLr): 122% **

ADCY9-3: siRNA, sense SEQ ID NO: 7 AGGAAGAGGUCAUAAAGAAUU, antisense SEQ ID NO: 8 UUCUUUAUGACCUCUUCCUUU; targets ADCY9 mRNA Exon 5-6 (listed as RNA, chemistry not fully specified)
AC9 protein expression in human HepG2 cells (% of siScramble) (AC9): 17% ***
LDLr protein expression in human HepG2 cells (% of siScramble) (LDLr): 126% *

ADCY9-4: siRNA, sense SEQ ID NO: 9 GCACCAAGAUCCAGAGCAUUU, antisense SEQ ID NO: 10 AUGCUCUGGAUCUUGGUGCUU; targets ADCY9 mRNA Exon 10 (listed as RNA, chemistry not fully specified)
AC9 protein expression in human HepG2 cells (% of siScramble) (AC9): 15% ***
LDLr protein expression in human HepG2 cells (% of siScramble) (LDLr): 150% **

ADCY9-ID1039: siRNA, sense SEQ ID NO: 1 CCUGAUGAAAGAUUACUUUTT, antisense SEQ ID NO: 2 AAAGUAAUCUUUCAUCAGGCT; targets ADCY9 mRNA Exon 5 (chemistry not fully specified)
AC9 protein expression in human HepG2 cells (% of siScramble) (AC9): 15% ***
LDLr protein expression in human HepG2 cells (% of siScramble) (LDLr): 123% *
